“Also recorded” adds a separate entry of the source.
Assays:
total GR = total GR (Homo sapiens, UniProt P04150); conditions: 12 h continuous hormone treatment, 100 nM
Method: FIGS. 7A–7C are immunoblots and graph showing the kinetics of S203 and S211 phosphorylation in response to Dex treatment. U2OS-hGR cells were treated with ethanol (−) or Dex (100 nM) for the time indicated. Whole cell lysates were prepared, normalized and analyzed by immunoblotting with phospho-S203, phospho-S211 or HA antibodies. Immunoblot images of GR phosphorylated at S203 and S211 in the first hour of Dex treatment (FIG. 7A) or throughout 12 h of continuous Dex treatment (FIG. 7B); the total GR in each sample was determined by immunoblotting for HA. In FIG. 7C, quantitative analysis of immunoblot results in panel B normalized to total GR detected by HA. The data shown are from a single experiment that is representative of at least three independent experiments. […]
Cell extracts or immunoprecipitates containing GR were separated by 10% SDS-polyacrylamide gel electrophoresis (PAGE) and were transferred to Immobilon paper (Millipore Corp., Bedford, Mass.) at 110V for 80 min in Tris-Glycine transfer buffer. […] Endogenous GR was detected using the N499 polyclonal antibody, raised against residues 1–499 of the human GR. […] Quantitative analysis of immunoblots was performed using the NIH image software package (version 1.62).

[1] = tested on: GR-mediated transcriptional activation; assay: MMTV-luciferase reporter GR transcriptional activation in U2OS-hGR cells; format: cell-based, human; conditions: ligand 100 nM, 1 h
Method: In FIG. 6B, U2OS-hGR cells were transiently transfected with the MMTV-luciferase reporter construct along with pCMV-lacZ as an internal control. After 16 h, the cells were treated with ligands indicated (100 nM) for 1 h, conditions identical to those used for the immunoblot analysis, and luciferase activity determined.

[2] = target: T1, human GR phosphorylated at S211 (Homo sapiens, UniProt P04150); assay: Immunoblot of GR S211 phosphorylation in U2OS-hGR cell extracts; format: cell-based; conditions: 1 h; for GR phosphorylation at S211: ligand 100 nM, U2OS-hGR cells
T1 construct: expressed in transfected cells
T1 sequence (P04150 1-777): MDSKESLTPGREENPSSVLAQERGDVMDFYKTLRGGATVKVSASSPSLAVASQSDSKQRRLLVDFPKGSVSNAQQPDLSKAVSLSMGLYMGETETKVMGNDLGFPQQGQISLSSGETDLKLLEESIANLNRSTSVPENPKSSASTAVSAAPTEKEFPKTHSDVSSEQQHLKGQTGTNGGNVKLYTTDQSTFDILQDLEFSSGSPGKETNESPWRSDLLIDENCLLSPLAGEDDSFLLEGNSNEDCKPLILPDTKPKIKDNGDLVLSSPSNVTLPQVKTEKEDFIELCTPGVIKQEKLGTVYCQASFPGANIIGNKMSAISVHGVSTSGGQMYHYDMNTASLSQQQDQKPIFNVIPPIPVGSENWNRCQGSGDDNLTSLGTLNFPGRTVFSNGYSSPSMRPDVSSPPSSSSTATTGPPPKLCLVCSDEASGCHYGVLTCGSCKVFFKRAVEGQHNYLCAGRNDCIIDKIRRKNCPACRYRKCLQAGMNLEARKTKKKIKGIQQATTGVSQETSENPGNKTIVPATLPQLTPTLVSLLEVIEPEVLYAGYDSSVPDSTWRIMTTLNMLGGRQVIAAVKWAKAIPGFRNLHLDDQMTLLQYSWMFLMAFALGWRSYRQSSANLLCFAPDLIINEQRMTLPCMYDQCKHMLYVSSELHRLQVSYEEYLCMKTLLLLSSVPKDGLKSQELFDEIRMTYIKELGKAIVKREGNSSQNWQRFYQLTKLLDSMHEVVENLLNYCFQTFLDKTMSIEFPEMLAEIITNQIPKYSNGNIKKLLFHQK
Method: In FIG. 6A, U20S-hGR were treated with ethanol (−) or the ligands indicated (100 nM) for 1 hour and whole cell extracts were prepared. For antagonism experiments, a 10-fold excess of RU486 (1 μM) or ZK299 (1 μM) were added simultaneously with 100 nM Dex for 1 h prior to cell lysis. Equal amounts of protein from each treatment were analyzed by immunoblotting with either phospho-S203, phospho-S211 or HA antibodies, reflective of the amount of total GR present in each lane.
Cells were placed on ice, washed twice in phosphate-buffer saline (PBS), lysed in 0.5 ml of buffer containing 50 mM HEPES, pH 7.5, 150 mM NaCl, 1 mM EDTA, 1 mM EGTA, 1 mM NaF, 1% Triton X-100, 10% glycerol and additional protease and phosphatase inhibitors: 1 mM PMSF, 20 mM β-glycerophosphate, 8 mM sodium pyrophosphate, 1 μg/ml leupeptin, pepstatin A and aprotinin (Roche). […] The soluble supernatants were normalized for total protein concentration using the Bio-Rad protein assay (Bio-Rad Laboratories, Hercules, Calif.) and the samples were boiled for 3 min in 2×SDS sample buffer and stored at −20° C.
Cell extracts or immunoprecipitates containing GR were separated by 10% SDS-polyacrylamide gel electrophoresis (PAGE) and were transferred to Immobilon paper (Millipore Corp., Bedford, Mass.) at 110V for 80 min in Tris-Glycine transfer buffer. The membranes were blocked overnight in 5% bovine serum albumin (BSA) in Tris-buffered saline, pH 7.4 (TBS) (blocking solution) at 4° C., then were incubated in the blocking buffer with primary antibody at room temperature (RT) for 2–4 h using 1:1,000 and 1:10,000 dilution of serum for phospho-S211 (Ab353) and phospho-S203 (Ab211), respectively. […] The membranes were washed three times for 10 min in TBS/0.1% Triton X-100 and twice in TBS and incubated for 1 h at RT with 0.2 μg/ml protein A conjugated to horseradish peroxidase (HRP) (Kirkegaard and Perry Laboratories, Gaithersburg, Md.). For blots using the anti-HA-tag monoclonal antibody (α-HA; Roche), an HRP-conjugated goat-anti-mouse IgG secondary antibody was used. Blots were then washed three times for 10 min in TBS-0.1% Triton X-100, twice in TBS and developed using enhanced chemiluminescence (ECL) according to manufacturer's instructions (Amersham Pharmacia Biotech Inc., Piscataway, N.J.).

[3] = target: T2, human GR phosphorylated at S203 (Homo sapiens, UniProt P04150); conditions: ligand 100 nM, 1 h, U2OS-hGR cells
T2 sequence (P04150 1-777): T1 sequence (P04150 1-777)
Method: In FIG. 6A, U20S-hGR were treated with ethanol (−) or the ligands indicated (100 nM) for 1 hour and whole cell extracts were prepared. For antagonism experiments, a 10-fold excess of RU486 (1 μM) or ZK299 (1 μM) were added simultaneously with 100 nM Dex for 1 h prior to cell lysis. Equal amounts of protein from each treatment were analyzed by immunoblotting with either phospho-S203, phospho-S211 or HA antibodies, reflective of the amount of total GR present in each lane. In FIG. 6B, U2OS-hGR cells were transiently transfected with the MMTV-luciferase reporter construct along with pCMV-lacZ as an internal control. After 16 h, the cells were treated with ligands indicated (100 nM) for 1 h, conditions identical to those used for the immunoblot analysis, and luciferase activity determined.
Cells were placed on ice, washed twice in phosphate-buffer saline (PBS), lysed in 0.5 ml of buffer containing 50 mM HEPES, pH 7.5, 150 mM NaCl, 1 mM EDTA, 1 mM EGTA, 1 mM NaF, 1% Triton X-100, 10% glycerol and additional protease and phosphatase inhibitors: 1 mM PMSF, 20 mM β-glycerophosphate, 8 mM sodium pyrophosphate, 1 μg/ml leupeptin, pepstatin A and aprotinin (Roche). Lysates were centrifuged at 12,000 rpm for 15 min at 4° C. […]

GR = target: T3, GR (Homo sapiens, UniProt P04150); conditions: cited from earlier work
T3 sequence (P04150 1-777): T1 sequence (P04150 1-777)

For `C[C@@H]1C[C@H]2[C@@H]3CCC4=CC(=O)C=C[C@]4(C)[C@@]3(F)[C@@H](O)C[C@]2(C)[C@@]1(O)C(=O)CO` [Dex, dexamethasone], the “Reduction of total GR” value (total GR) was roughly 80%.

For `C[C@]12C=CC(=O)C=C1CC[C@@H]1[C@@H]2[C@@H](O)C[C@@]2(C)[C@H]1CC[C@]2(O)C(=O)CO` [Prednisolone], the “GR transcriptional activation (MMTV-luciferase)” value [1] was “pattern mirrored in the GR transcriptional activation assay” and the “GR phosphorylation at S211” value [2] was “promoted S211 phosphorylation; also recorded: induced robust GR phosphorylation at S211”.

With `CN(C)c1ccc([C@H]2C[C@]3(C)[C@@H](CC[C@]3(O)CCCO)[C@@H]3CCC4=CC(=O)CCC4=C32)cc1` [ZK299] the “GR phosphorylation at S203” value [3] was “almost no effect”, the “Blocking of Dex-dependent GR phosphorylation” value ([2]; 10-fold molar excess (1 μM) added with 100 nM Dex) was “not as effective” and the “GR phosphorylation at S211” value [2] was “almost no effect”.

For `C=C1[C@@H](O)[C@@H]2O[C@]3(CC[C@H](/C=C/[C@@H](C)[C@@H]4CC(C)=C[C@@]5(O[C@H](C[C@@](C)(O)C(=O)O)CC[C@H]5O)O4)O3)CC[C@H]2O[C@@H]1[C@@H](O)C[C@H](C)[C@H]1O[C@@]2(CCCCO2)CC[C@H]1C` [okadaic acid], the “Effect on GR reported in the literature” value (GR) is listed as “results in GR hyperphosphorylation”.
